How the values were obtained:
Type in all cases: in vivo
Alopecurus japonicus = assay: weeding effect in post-emergence stage
How it was run: (§1)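 Read-out is fresh weight growth control rate, binned into levels 0-5 (Level 5 above 85%, Level 0 below 5%), recorded 3 weeks after spraying and averaged over three repeats. Plants were treated at the 2-3 leaf stage with 7.5-500 g a.i./ha plus methyl oleate synergist.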

Beckmannia syzigachne = assay: weeding effect in post-emergence stage
How it was run: as §1

Conyza japonica = assay: weeding effect in post-emergence stage
How it was run: as §1

Rorippa indica = assay: weeding effect in post-emergence stage
How it was run: as §1

[1] = system: Echinochloa crusgalli, Scirpus juncoides and Bidens tripartita L. collected from Heilongjiang Province of China; assay: resistance tests of the collected rice field weeds; conditions: seeds collected from Heilongjiang Province of China
Description: Note: The seeds of Echinochloa crusgalli, Scirpus juncoides and Bidens tripartita L. were collected from Heilongjiang Province of China.

| SMILES | weeding effect in post-emergence stage, Alopecurus japonicus (activity level) (Alopecurus japonicus; dose 15 g a.i./ha) | weeding effect in post-emergence stage, Beckmannia syzigachne (activity level) (Beckmannia syzigachne; dose 15 g a.i./ha) | weeding effect in post-emergence stage, Conyza japonica (activity level) (Conyza japonica; dose 15 g a.i./ha) | weeding effect in post-emergence stage, Rorippa indica (activity level) (Rorippa indica; dose 15 g a.i./ha) | weeding effect in post-emergence stage, Alopecurus japonicus (activity level) (Alopecurus japonicus; dose 7.5 g a.i./ha) | weeding effect in post-emergence stage, Beckmannia syzigachne (activity level) (Beckmannia syzigachne; dose 7.5 g a.i./ha) | weeding effect in post-emergence stage, Conyza japonica (activity level) (Conyza japonica; dose 7.5 g a.i./ha) | weeding effect in post-emergence stage, Rorippa indica (activity level) (Rorippa indica; dose 7.5 g a.i./ha) | response of the weeds to the common doses [1] |
| --- | --- | --- | --- | --- | --- | --- | --- | --- | --- |
| CCOC(=O)C1ON=C(c2cc(-n3c(=O)n(C)c(=S)n(C)c3=O)c(F)cc2Cl)C1C(=O)OCC (centres unmarked) [Compound 1-100] | 5 (Level 5: growth control rate is above 85%) | 5 (Level 5: growth control rate is above 85%) | 5 (Level 5: growth control rate is above 85%) | 5 (Level 5: growth control rate is above 85%) | – | – | – | – | – |
| CCOC(=O)C1(C)ON=C(c2cc(-n3c(=O)n(C)c(=S)n(C)c3=O)c(F)cc2Cl)C1C (centres unmarked) [Compound 1-101] | 5 (Level 5: growth control rate is above 85%) | 5 (Level 5: growth control rate is above 85%) | 5 (Level 5: growth control rate is above 85%) | 5 (Level 5: growth control rate is above 85%) | – | – | – | – | – |
| CCOC(=O)C1(C)CC(c2cc(-n3c(=O)n(C)c(=S)n(C)c3=O)c(F)cc2Cl)=NO1 (centres unmarked) [Control compound A, reference compound] | 3 (Level 3: growth control rate is greater than or equal to 40% and less than 60%) | 2 (Level 2: growth control rate is greater than or equal to 20% and less than 40%) | 2 (Level 2: growth control rate is greater than or equal to 20% and less than 40%) | 2 (Level 2: growth control rate is greater than or equal to 20% and less than 40%) | – | – | – | – | – |
| CCOC(=O)C1(C)CC(c2cc(-n3c(=O)cc(C(F)(F)F)n(C)c3=O)c(F)cc2Cl)=NO1 (centres unmarked) [Control compound B, reference compound] | 4 (Level 4: growth control rate is greater than or equal to 60% and less than 85%) | 3 (Level 3: growth control rate is greater than or equal to 40% and less than 60%) | 4 (Level 4: growth control rate is greater than or equal to 60% and less than 85%) | 3 (Level 3: growth control rate is greater than or equal to 40% and less than 60%) | 3 (Level 3: growth control rate is greater than or equal to 40% and less than 60%) | 2 (Level 2: growth control rate is greater than or equal to 20% and less than 40%) | 3 (Level 3: growth control rate is greater than or equal to 40% and less than 60%) | 2 (Level 2: growth control rate is greater than or equal to 20% and less than 40%) | – |
| CCOC(=O)c1cnn(C)c1S(=O)(=O)NC(=O)Nc1nc(OC)cc(OC)n1 [Pyrazosulfuron-ethyl] | – | – | – | – | – | – | – | – | resistant |
| CCOC(=O)C1(C)CC(c2cc(-n3c(=O)cc(C(F)(F)F)n(C)c3=O)c(F)cc2Cl)=NO1 (centres unmarked) [drawing 745, reference compound] | 2 (Level 2: growth control rate is greater than or equal to 20% and less than 40%) | 1 (Level 1: growth control rate is greater than or equal to 5% and less than 20%) | 1 (Level 1: growth control rate is greater than or equal to 5% and less than 20%) | 1 (Level 1: growth control rate is greater than or equal to 5% and less than 20%) | – | – | – | – | – |
| CCOC(=O)C1(C)CC(c2cc(-n3c(=O)n(C)c(=S)n(C)c3=O)c(F)cc2Cl)=NO1 (centres unmarked) [drawing 746, reference compound] | 2 (Level 2: growth control rate is greater than or equal to 20% and less than 40%) | 1 (Level 1: growth control rate is greater than or equal to 5% and less than 20%) | 1 (Level 1: growth control rate is greater than or equal to 5% and less than 20%) | 1 (Level 1: growth control rate is greater than or equal to 5% and less than 20%) | – | – | – | – | – |
